Results published in patent US20200147070A1, “INDUCING PHOSPHOLIPIDOSIS FOR ENHANCING THERAPEUTIC EFFICACY” (Nextcea Inc., priority 2017, published 2020).
Values belong to the molecule of their own block, whether it stands above or below them.

What was measured:
di-22:6-BMP = test: PL biomarker di-22:6-BMP in tissues and urine; format: in vivo, Sprague-Dawley rats; conditions: 2 weeks; for PL biomarker di-22:6-BMP in tissues (PL induced in both treatment groups): amiodarone 150 mg/kg/day alone or co-administered with fluoxetine 10 mg/kg/day, heart, liver, kidney, lung; for di-22:6-BMP biomarker in various tissues (PL induced): fluoxetine 10 mg/kg/day alone or co-administered with amiodarone 150 mg/kg/day
cathepsin-B = target: T1, cathepsin-B (Rattus norvegicus, UniProt P00787); test: Fluorescence-based cathepsin-B activity assay (RR-AFC substrate) in liver and spleen homogenates of treated rats; format: in vivo, Sprague-Dawley rats
T1 construct: from tissue; host or cells: liver and spleen homogenates of Sprague-Dawley rats
Procedure: Cathepsin-B is a lysosomal protease that plays an important role in intracellular proteolysis. […] Liver and spleen homogenates were analyzed using a fluorescence-based assay that utilized the preferred cathepsin-B substrate sequence RR labeled with amino-4-trifluoromethyl coumarin (AFC). Samples that contain cathepsin-B cleave the synthetic substrate RR-AFC to release free AFC.

[1] = amiodarone 150 mg/kg/day co-administered with fluoxetine 10 mg/kg/day, 2 weeks, vs amiodarone alone
Source text: Heart, liver, kidney and lung tissues were collected at necropsy at 2 weeks.

liver, kidney, and heart = test: Electron microscopic examination of tissue sections for phospholipidosis, 2-week repeat dose study; format: in vivo, Sprague-Dawley rats; conditions: co-administered bedaquiline 60 mg/kg/day and citalopram 70 mg/kg/day, 2 weeks
Procedure: FIG. 3 is a set of electron micrographs depicting the accumulation of lysosomal myeloid bodies, indicative of PL, in rat tissues. Sprague-Dawley rats received once daily oral (PO) co-administration of bedaquiline (60 mg/kg/day) and citalopram (70 mg/kg/day) for 2 weeks.
Sprague-Dawley rats were co-administered bedaquiline (60 mg/kg/day) and citalopram (70 mg/kg/day) in a 2-week repeat dose study. Tissue sections (liver, kidney, and heart) were collected at 2 weeks for electron microscopic examination and PL biomarker/proteomic evaluation.

cathepsin B1 = cathepsin B1 (Rattus norvegicus, UniProt P00787); conditions: Wibo and Poole 1974; cited from earlier work
[2] = Fluoxetine tissue concentrations, alone or co-administered with amiodarone; format: in vivo, Sprague-Dawley rats; conditions: fluoxetine 10 mg/kg/day co-administered with amiodarone 150 mg/kg/day, 2 weeks; tissues including brain
Source text: FIG. 8 is a set of graphs showing that PL-induction increased drug tissue concentrations to enhance in vivo drug efficacy.
PL was induced as indicated by an increase in the di-22:6-BMP biomarker in various tissues.

T1 sequence (P00787 80-333): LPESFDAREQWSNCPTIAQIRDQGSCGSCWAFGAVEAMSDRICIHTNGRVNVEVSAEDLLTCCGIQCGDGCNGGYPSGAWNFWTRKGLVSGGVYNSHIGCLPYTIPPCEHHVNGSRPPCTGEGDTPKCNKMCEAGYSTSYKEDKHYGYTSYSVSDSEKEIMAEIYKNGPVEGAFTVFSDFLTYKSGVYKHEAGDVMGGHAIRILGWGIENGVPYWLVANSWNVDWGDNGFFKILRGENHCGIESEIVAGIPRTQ
Chain of cathepsin B1 (P00787 80-333): as above

- activity of cathepsin B in rat liver and spleen (cathepsin-B; PL induced by amiodarone): slowed
- levels of free AFC in tissues compared to controls (cathepsin-B activity) (cathepsin-B; amiodarone 150 mg/kg/day, 2 weeks, liver and spleen homogenates): lower
- concentration of amiodarone in the lung tissue [1]: decreased
SMILES: CCCCc1oc2ccccc2c1C(=O)c1cc(I)c(OCCN(CC)CC)c(I)c1 [amiodarone]
- PL biomarker di-22:6-BMP in tissues (PL induced in both treatment groups) (di-22:6-BMP): increase
- di-22:6-BMP biomarker in various tissues (PL induced) (di-22:6-BMP): increase

SMILES: COc1nc2ccc(Br)cc2cc1[C@@H](c1ccccc1)[C@@](O)(CCN(C)C)c1cccc2ccccc12 [bedaquiline]
- multi-lamellar lysosomal inclusions and electron dense deposits (indicative of drug-induced PL) (liver, kidney, and heart): treatment-dependent increase
- biomarker di-22:6-BMP in rat tissues and urine (di-22:6-BMP; co-administered bedaquiline 60 mg/kg/day and citalopram 70 mg/kg/day): increase

SMILES: CCN(CC)CCCC(C)Nc1ccnc2cc(Cl)ccc12 (centres unmarked) [chloroquine]
- cathepsin B1 activities (cathepsin B1): inhibited

- fluoxetine concentrations in tissues, compared to fluoxetine alone [2]: increased
SMILES: CNCCC(Oc1ccc(C(F)(F)F)cc1)c1ccccc1 (centres unmarked) [fluoxetine]
- PL biomarker di-22:6-BMP in tissues (PL induced in both treatment groups) (di-22:6-BMP): increase
- di-22:6-BMP biomarker in various tissues (PL induced) (di-22:6-BMP): increase
